Patent publication US20230192598A1, “NOVEL MODIFIED TETRACYCLINES FOR TREATMENT OF ALCOHOL USE DISORDER, PAIN AND OTHER DISORDERS INVOLVING POTENTIAL INFLAMMATORY PROCESSES” (Texas Tech University System, priority 2020, published 2023)
“Also recorded” adds a separate entry of the source.

Assays:
C57BL/6J mice = assay: Drinking in the Dark (DID) model of AUD, ethanol consumption; assay type: in vivo; details: for reduction of ethanol consumption: by gavage, compared with i.p.; for % DID: Table 3, ↓ = decrease of alcohol consumption
Description: FIGS. 5A to 5C show, 5A) CMMs reduced acute ethanol consumption in the Drinking in the Dark model of AUD. MINO, DeDiAc, and TRI reduced ethanol consumption by over 50% by intraperitoneal injection (Left). […] 5B) Dose response curve for DeDIAc in female mice by gavage. 5C) Dose response curve for DeDIAc in male mice by gavage. MINO=minocycline, BeMAc=Butyl ether monoacetate minocycline, DeDiAc=De amino di acetyl minocycline, TRI=Tri acetyl minocycline. *p<0.05 compared to controls.
(§1) Purity and molecular formula verification of the CMM analogs were done using High Performance Liquid Chromatography (HPLC) Nuclear Magnetic Resonance spectroscopy (NMR) and Liquid Chromatography-Mass Spectrometry (LC-MS) after initial identification via Thin-layer Chromatography (TLC). Zone of inhibition (ZOI) and colony forming unit (CFU) assays were used to assess the antibacterial efficacy of our CMM analogs in E. coli cell culture. Drinking-in-the-Dark (DID) and Two-Bottle Choice (2BC) procedures were utilized in both female and male C57BL/6J mice to evaluate ethanol and water consumption. […] Butyl ether minocycline may be used for an AUD treatment.

E. coli cell culture = assay: Antibacterial efficacy of CMM ether analogs (ZOI and CFU assays, Example 2); assay type: cell-based; details: for Anti-microbial action: Table 3
Description: as §1

AUD traits = details: seven tetracyclines tested (Syapin et al. 2016); cited from earlier work
[1] = cited from earlier work
E. coli [2] = assay: Zone of inhibition assay; assay type: cell-based; details: 24 hour cell culture
Description: (§2) MINO=minocycline, BeMAc=Butyl ether monoacetate minocycline, DeDiAc=De amino di acetyl minocycline, TRI=Tri acetyl minocycline.
as §1

E. coli [3] = assay: Colony forming unit assay, antibacterial; assay type: cell-based; details: 24 hour cell culture
Description: as §2, §1

[4] = butyl ether minocycline 100 mg/kg, i.p.

Compound | reduction of ethanol consumption (C57BL/6J mice; Drinking in the Dark) | Anti-microbial action (E. coli cell culture) | % DID (C57BL/6J mice; [4]) | LogD [1] | LogP [1] | other results
Butyl ether monoacetate minocycline [BeMAc] | reduced ethanol consumption to a lesser degree |  |  |  |  | 
COc1ccc(N(C)C)c2c1C(=O)C1=C(O)C3(O)C(=O)C(C(N)=O)=C(O)C(N(C)C)C3CC1C2.Cl (stereo not drawn) [Methyl Ether Minocycline HCl, 4,7-Bis-dimethylamino-3,12,12a-trihydroxy-10-methoxy-1,11-dioxo-1,4,4a,5,5a,6,11,12a-octahydro-naphthacene-2-carboxylic acid amide hydrochloride] |  | >16 mg/mL | 40% |  |  | 
CN(C)c1ccc(O)c2c1C[C@H]1C[C@H]3[C@H](N(C)C)C(=O)C(C(N)=O)=C(O)[C@@]3(O)C(=O)C1=C2O [Minocycline, reference compound] | reduced ethanol consumption to a lesser degree |  |  |  |  | effectiveness against AUD traits (AUD traits): effective
CN(C)c1ccc(O)c2c1CC1CC3C(N(C)C)C(O)=C(C(N)=O)C(=O)C3(O)C(O)=C1C2=O.Cl (stereo not drawn) [Minocycline HCl, 4,7-Bis-dimethylamino-3,10,12,12a-tetrahydroxy-1,11-dioxo-1,4,4a,5,5a,6,11,12a-octahydro-naphthacene-2-carboxylic acid amide hydrochloride, reference compound] |  | >0.125 mg/mL | 75% |  |  | 
CCCOc1ccc(N(C)C)c2c1C(=O)C1=C(O)C3(O)C(=O)C(C(N)=O)=C(O)C(N(C)C)C3CC1C2.Cl (stereo not drawn) [Propyl Ether Minocycline HCl, 4,7-Bis-dimethylamino-3,12,12a-trihydroxy-1,11-dioxo-10-propoxy-1,4,4a,5,5a,6,11,12a-octahydro-naphthacene-2-carboxylic acid amide hydrochloride] |  | >4 mg/mL | 50% |  |  | 
Tri acetyl minocycline | reduced ethanol consumption to a lesser degree |  |  |  |  | 
CN(C)[C@@H]1C(O)=C(C(N)=O)C(=O)[C@@]2(O)C(O)=C3C(=O)c4c(O)cccc4[C@@](C)(O)[C@H]3[C@H](O)[C@@H]12 [Oxytetracycline] |  |  |  | −4.25 | −1.5 | 
CN(C)[C@@H]1C(O)=C(C(N)=O)C(=O)[C@@]2(O)C(O)=C3C(=O)c4c(O)ccc(Cl)c4[C@@H](O)[C@H]3C[C@@H]12 [Demeclocycline] |  |  |  | −3.40 | −1.07 | 
C[C@H]1c2cccc(O)c2C(=O)C2=C(O)[C@]3(O)C(=O)C(C(N)=O)=C(O)[C@@H](N(C)C)[C@@H]3[C@@H](O)[C@@H]21 [Doxycycline] |  |  |  | −3.29 | −0.54 | effectiveness against AUD traits (AUD traits): effective
CCCCOc1ccc(N(C)C)c2c1C(=O)C1=C(O)C3(O)C(=O)C(C(N)=O)=C(O)C(N(C)C)C3CC1C2.Cl (stereo not drawn) [Butyl Ether Minocycline HCl, 10-Butoxy-4,7-bis-dimethylamino-3,12,12a-trihydroxy-1,11-dioxo-1,4,4a,5,5a,6,11,12a-octahydro-naphthacene-2-carboxylic acid amide hydrochloride] |  | ND 64 mg/ml | 85% |  |  | antibiotic / antimicrobial activity (in words) (E. coli cell culture; Example 2, compared to minocycline): lost antibiotic activity; alcohol consumption (in words) (C57BL/6J mice; Example 2, butyl ether minocycline 100 mg/kg, i.p., hydrochloride): significantly reduced alcohol consumption; also recorded: greatest reduction in alcohol consumption
CCOc1ccc(N(C)C)c2c1C(=O)C1=C(O)C3(O)C(=O)C(C(N)=O)=C(O)C(N(C)C)C3CC1C2.Cl (stereo not drawn) [Ethyl Ether Minocycline HCl, 4,7-Bis-dimethylamino-10-ethoxy-3,12,12a-trihydroxy-1,11-dioxo-1,4,4a,5,5a,6,11,12a-octahydro-naphthacene-2-carboxylic acid amide hydrochloride] |  | >2 mg/mL | 50% |  |  | 
CN(C)c1cc(NC(=O)CNC(C)(C)C)c(O)c2c1C[C@H]1C[C@H]3[C@H](N(C)C)C(O)=C(C(N)=O)C(=O)[C@@]3(O)C(O)=C1C2=O [Tigecycline] |  |  |  | −2.73 | −1.30 | effectiveness against AUD traits (AUD traits): effective
De amino di acetyl minocycline [DeDiAc] | reduced ethanol consumption to a lesser degree |  |  |  |  | antibacterial action, zone of inhibition (E. coli [2]): loss of antibiotic activity; antibacterial action, colony forming units (E. coli [3]): loss of antibiotic activity; ethanol consumption (in words) (C57BL/6J mice; Example 1, Drinking in the Dark, intraperitoneal and oral administration): significantly reduced ethanol consumption
